{"source": "ChEMBL document CHEMBL1201862", "about": "“PubChem BioAssay data set” (2004)", "key": {"[1]": {"molecular_target": "T1, Methionyl-tRNA synthetase, putative (Trypanosoma brucei brucei, UniProt Q38C91)", "T1 sequence (Q38C91 whole entry)": "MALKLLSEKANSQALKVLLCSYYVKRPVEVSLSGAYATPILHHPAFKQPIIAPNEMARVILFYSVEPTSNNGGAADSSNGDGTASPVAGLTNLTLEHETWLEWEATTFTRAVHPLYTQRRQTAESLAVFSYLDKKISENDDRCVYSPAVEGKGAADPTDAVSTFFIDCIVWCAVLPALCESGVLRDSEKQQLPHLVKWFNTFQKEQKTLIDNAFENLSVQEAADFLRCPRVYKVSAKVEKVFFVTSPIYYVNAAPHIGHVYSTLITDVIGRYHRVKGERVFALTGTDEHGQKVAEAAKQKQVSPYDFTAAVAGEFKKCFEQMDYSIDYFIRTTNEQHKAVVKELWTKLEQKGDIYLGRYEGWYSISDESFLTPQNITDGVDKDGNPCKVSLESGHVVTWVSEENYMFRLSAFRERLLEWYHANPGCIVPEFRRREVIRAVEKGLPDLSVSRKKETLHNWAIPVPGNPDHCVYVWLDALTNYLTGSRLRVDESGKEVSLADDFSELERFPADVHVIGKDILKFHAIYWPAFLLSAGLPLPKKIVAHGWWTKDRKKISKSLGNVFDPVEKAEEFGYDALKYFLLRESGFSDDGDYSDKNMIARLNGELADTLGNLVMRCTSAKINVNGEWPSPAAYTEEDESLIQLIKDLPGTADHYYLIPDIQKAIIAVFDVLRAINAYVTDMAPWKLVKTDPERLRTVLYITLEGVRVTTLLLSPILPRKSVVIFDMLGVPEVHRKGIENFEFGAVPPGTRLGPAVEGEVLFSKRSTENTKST", "type": "functional, Trypanosoma brucei brucei strain 927/4 GUTat10.1"}, "[2]": {"molecular_target": "T1, Methionyl-tRNA synthetase, putative", "type": "functional, Trypanosoma brucei brucei strain 927/4 GUTat10.1", "remark": "listed apart in the source"}, "[3]": {"molecular_target": "FAD-linked sulfhydryl oxidase ALR (Homo sapiens, UniProt P55789)", "sequence (P55789 whole entry)": "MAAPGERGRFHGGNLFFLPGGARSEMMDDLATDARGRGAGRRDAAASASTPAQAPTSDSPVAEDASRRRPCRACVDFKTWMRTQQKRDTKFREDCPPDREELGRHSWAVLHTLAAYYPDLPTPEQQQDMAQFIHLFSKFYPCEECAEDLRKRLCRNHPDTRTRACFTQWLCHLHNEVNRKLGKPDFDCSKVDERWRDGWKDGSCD", "experiment": "ALR-catalysed DTT oxidation blockers – biochemical, H2O2 detection, luminescence, cherry-pick, dose response (AID 493248)"}, "[4]": {"experiment": "Counterscreen for inhibitors of Trypanosoma brucei methionyl tRNA synthetase (MetRS): Luminescence-based cell-based high throughput dose response assay to identify compounds that are cytotoxic to Jurkat human T lymphocyte cells.", "type": "functional"}, "[5]": {"experiment": "Late stage counterscreen for inhibitors of Trypanosoma brucei methionyl tRNA synthetase (MetRS): Luminescence-based cell-based high throughput dose response assay to identify compounds that are cytotoxic to Jurkat human T lymphocyte cells.", "type": "functional"}, "[6]": {"molecular_target": "T2, Rac GTPase-activating protein 1 (Homo sapiens, UniProt Q9H0H5)", "T2 sequence (Q9H0H5 whole entry)": "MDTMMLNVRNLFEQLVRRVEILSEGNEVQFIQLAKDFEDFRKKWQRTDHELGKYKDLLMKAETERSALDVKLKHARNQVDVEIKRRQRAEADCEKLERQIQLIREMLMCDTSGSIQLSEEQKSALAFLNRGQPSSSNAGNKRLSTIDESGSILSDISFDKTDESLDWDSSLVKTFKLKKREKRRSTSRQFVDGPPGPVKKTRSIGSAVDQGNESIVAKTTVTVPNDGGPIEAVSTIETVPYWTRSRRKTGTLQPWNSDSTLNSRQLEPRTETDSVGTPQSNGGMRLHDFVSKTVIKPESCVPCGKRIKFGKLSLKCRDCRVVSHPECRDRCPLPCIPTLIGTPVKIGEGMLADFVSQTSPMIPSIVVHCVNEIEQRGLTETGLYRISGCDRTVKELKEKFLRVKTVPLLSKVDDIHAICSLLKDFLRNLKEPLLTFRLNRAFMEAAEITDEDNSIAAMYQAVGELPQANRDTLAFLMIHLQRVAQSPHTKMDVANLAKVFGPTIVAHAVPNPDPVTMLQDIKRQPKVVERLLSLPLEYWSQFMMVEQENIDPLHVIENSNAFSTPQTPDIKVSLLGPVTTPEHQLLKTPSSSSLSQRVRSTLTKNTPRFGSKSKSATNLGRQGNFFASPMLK", "experiment": "blockers of MgcRacGAP-driven Rac1 GTP hydrolysis – biochemical, ADP Hunter fluorescence, primary and confirmatory, confirmation (AID 624330)", "type": "functional"}, "fMet-Leu-Phe receptor": {"molecular_target": "fMet-Leu-Phe receptor (Homo sapiens, UniProt P21462)", "sequence (P21462 whole entry)": "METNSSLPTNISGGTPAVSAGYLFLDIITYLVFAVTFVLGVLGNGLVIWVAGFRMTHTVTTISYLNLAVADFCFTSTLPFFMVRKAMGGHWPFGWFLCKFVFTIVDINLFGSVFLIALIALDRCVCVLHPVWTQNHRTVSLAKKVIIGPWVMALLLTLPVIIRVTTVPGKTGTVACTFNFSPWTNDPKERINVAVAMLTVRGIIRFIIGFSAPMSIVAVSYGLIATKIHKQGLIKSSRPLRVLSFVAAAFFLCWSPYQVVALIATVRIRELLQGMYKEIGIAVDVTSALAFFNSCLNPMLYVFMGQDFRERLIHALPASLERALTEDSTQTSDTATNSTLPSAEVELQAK", "experiment": "formyl peptide receptor binders – dose response (AID 519)", "type": "functional"}, "Kallikrein-7": {"molecular_target": "Kallikrein-7 (Homo sapiens, UniProt P49862)", "sequence (P49862 whole entry)": "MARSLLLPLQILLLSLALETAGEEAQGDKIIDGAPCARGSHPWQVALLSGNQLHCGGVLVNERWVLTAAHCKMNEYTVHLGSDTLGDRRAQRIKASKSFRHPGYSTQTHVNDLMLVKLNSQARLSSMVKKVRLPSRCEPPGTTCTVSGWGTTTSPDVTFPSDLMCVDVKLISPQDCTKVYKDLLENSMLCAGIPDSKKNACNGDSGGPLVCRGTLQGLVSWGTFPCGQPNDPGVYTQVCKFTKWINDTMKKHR", "experiment": "Fluorescence Intensity-based biochemical primary high throughput dose response assay to identify activators of kallikrein-7 (K7) zymogen."}, "HEK293 [7]": {"test_system": "HEK293", "experiment": "cells", "type": "functional, cell-based", "conditions": "Homo sapiens"}, "INS1": {"test_system": "INS1", "experiment": "INS-1E survival protection against cytokine death – cell-based, luminescence, retest, dose response (AID 449756);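 further: cell death triggered by IL-1 beta plus TNF-alpha plus IFN-gamma mixture; protective hits raise ATP signal compared with cytokine alone wells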", "type": "functional", "conditions": "Rattus norvegicus"}, "[8]": {"experiment": "Shn3 transcript knock-down in Clone20 cells – cell-based, qPCR, cherry-pick, dose response (AID 743415)", "type": "functional"}, "HEK293 [9]": {"test_system": "HEK293", "experiment": "NOD2 signaling inhibitors in MDP-stimulated cells, cell-based, uHTS, luminescence (AID 2001)", "type": "functional", "conditions": "Homo sapiens"}, "HEK293 [10]": {"test_system": "HEK293", "experiment": "cells", "type": "functional, cell-based", "conditions": "Homo sapiens", "remark": "listed apart in the source"}, "[11]": {"molecular_target": "Nucleotide-binding oligomerization domain-containing protein 2 (Homo sapiens, UniProt Q9HC29)", "sequence (Q9HC29 whole entry, the tested form may be a part)": "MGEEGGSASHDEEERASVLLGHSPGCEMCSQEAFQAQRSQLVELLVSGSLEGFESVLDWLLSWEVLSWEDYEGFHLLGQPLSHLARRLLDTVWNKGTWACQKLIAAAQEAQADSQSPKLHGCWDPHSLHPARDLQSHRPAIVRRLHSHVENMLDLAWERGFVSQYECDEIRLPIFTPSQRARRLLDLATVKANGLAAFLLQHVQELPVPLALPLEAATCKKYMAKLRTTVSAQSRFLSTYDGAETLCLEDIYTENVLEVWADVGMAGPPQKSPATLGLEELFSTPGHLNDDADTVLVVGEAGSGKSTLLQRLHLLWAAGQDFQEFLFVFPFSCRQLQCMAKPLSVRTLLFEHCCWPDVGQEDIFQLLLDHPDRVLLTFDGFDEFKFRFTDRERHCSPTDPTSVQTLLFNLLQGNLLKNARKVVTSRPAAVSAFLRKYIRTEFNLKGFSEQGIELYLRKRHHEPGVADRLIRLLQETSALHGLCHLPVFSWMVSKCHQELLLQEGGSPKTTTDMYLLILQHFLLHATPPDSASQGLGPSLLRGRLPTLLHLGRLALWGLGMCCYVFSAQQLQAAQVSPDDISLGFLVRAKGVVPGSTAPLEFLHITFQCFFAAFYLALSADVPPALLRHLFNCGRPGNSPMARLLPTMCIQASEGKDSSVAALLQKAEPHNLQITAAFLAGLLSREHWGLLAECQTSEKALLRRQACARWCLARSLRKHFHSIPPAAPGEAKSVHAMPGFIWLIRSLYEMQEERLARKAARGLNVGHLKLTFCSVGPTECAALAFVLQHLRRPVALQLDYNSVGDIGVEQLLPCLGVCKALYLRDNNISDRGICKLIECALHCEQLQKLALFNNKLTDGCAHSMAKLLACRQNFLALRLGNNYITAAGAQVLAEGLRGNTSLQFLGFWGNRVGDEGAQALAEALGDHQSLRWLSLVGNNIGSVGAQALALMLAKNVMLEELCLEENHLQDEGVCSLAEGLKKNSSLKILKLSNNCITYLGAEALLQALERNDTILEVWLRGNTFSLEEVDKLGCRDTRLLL", "experiment": "inhibition of NOD2-driven NF-kB reporter – cell-based, luminescence, uHTS, HEK293 (AID 1566)", "type": "functional"}, "HEK293 [12]": {"test_system": "HEK293", "experiment": "inhibition of NOD1-driven NF-kB reporter – cell-based, luminescence, uHTS, primary screen (AID 1578)", "type": "functional", "conditions": "Homo sapiens"}, "Protein Wnt-3a": {"molecular_target": "Protein Wnt-3a (Mus musculus, UniProt P27467)", "sequence (P27467 whole entry)": "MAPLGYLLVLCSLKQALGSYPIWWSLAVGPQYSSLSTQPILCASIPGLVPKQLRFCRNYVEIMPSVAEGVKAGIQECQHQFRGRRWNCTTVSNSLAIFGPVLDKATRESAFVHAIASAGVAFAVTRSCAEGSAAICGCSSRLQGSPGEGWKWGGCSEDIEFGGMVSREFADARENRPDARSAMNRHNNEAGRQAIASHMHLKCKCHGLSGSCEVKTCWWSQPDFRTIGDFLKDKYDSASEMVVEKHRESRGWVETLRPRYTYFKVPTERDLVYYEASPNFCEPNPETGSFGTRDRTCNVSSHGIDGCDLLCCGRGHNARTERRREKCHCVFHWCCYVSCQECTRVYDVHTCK", "experiment": "antagonism of Wnt3a pathway luciferase reporter – Wnt-LIGHT cells, luminescence, selectivity assay for Gli-SUFU antagonist project, dose response (AID 651570);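 further: Wnt-LIGHT reporter cells stimulated with conditioned medium from Wnt3a-producing cells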", "type": "functional", "conditions": "read-out: IC50_Mean"}, "HEK293 [13]": {"test_system": "HEK293", "experiment": "cells", "type": "functional, cell-based", "conditions": "Homo sapiens", "remark": "listed apart in the source"}, "[14]": {"experiment": "Trypanosoma cruzi growth suppression in host cells – NIH3T3 host cells, beta-gal luminescence, confirmation (AID 2044);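 further: intracellular parasites grown in NIH/3T3 mouse fibroblasts as host cells; luminescent beta-galactosidase reporter signal from transgenic T. cruzi replicating inside host cells; inhibitors lower the luminescence signal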", "type": "functional, cell-based"}, "[15]": {"molecular_target": "T3, Corticotropin-releasing factor receptor 2/Corticotropin-releasing factor-binding protein (Homo sapiens, UniProt P24387+Q13324)", "T3 sequence (Q13324 whole entry)": "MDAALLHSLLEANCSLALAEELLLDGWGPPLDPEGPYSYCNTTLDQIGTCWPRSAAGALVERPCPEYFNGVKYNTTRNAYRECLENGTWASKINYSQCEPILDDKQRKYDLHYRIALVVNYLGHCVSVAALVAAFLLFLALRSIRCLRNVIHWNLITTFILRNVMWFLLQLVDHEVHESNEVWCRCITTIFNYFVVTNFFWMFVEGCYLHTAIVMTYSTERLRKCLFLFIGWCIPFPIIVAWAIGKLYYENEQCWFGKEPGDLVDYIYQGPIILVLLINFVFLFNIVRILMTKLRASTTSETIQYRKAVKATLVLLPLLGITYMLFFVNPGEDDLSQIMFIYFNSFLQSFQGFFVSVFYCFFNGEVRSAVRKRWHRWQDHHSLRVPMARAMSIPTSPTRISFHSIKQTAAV", "T3 sequence (P24387 whole entry)": "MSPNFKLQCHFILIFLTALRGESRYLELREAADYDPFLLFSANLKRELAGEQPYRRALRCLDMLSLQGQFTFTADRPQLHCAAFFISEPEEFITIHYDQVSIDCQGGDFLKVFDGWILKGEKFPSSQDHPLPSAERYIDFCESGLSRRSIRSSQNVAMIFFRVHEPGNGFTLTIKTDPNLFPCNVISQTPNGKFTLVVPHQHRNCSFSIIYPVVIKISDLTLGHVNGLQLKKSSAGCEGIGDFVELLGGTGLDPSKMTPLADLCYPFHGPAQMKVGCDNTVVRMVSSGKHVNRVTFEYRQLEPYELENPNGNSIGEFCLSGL", "experiment": "activators of CRF receptor 2 with binding protein – uHTS hits, confirmation (AID 602473)", "type": "functional", "conditions": "read-out: EC50_Mean"}, "[16]": {"experiment": "NIH3T3 cell viability loss – ATP luminescence, mouse fibroblasts, counter-screen, dose response (AID 2010);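 further: cells exposed to compound for about 90 hours before reading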", "type": "functional, cell-based"}, "CAAX prenyl protease 2": {"molecular_target": "T4, CAAX prenyl protease 2 (Saccharomyces cerevisiae S288c, UniProt Q03530)", "T4 sequence (Q03530 whole entry)": "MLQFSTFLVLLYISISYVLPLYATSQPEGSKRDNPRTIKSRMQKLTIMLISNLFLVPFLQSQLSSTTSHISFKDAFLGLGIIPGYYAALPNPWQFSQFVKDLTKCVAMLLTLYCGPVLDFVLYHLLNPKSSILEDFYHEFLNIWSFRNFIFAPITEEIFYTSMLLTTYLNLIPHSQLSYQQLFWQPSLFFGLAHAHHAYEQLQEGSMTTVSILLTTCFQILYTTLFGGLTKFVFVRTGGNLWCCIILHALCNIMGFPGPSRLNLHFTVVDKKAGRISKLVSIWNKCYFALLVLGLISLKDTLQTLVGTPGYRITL", "type": "biochemical"}, "[17]": {"experiment": "Shn3 3'UTR reporter signal decrease – cell-based, Clone20 osteoblasts, firefly luciferase, cherry-pick, set 2, Schnurri-3 inhibitor project, dose response (AID 720490)", "type": "functional"}, "[18]": {"experiment": "reduction of Shn3 3'UTR-driven luciferase in osteoblasts – cell-based, Clone20 osteoblasts, firefly luciferase, cherry-picked, dose response (AID 624132)", "type": "functional"}}, "note": "Calls of active or inactive are those of the source."}
{"smiles": "Oc1c(Cl)cc(Cl)cc1CNc1nc2ccccc2[nH]1", "values": [{"measurement": "IC50", "setting": "[1]", "value": "0.661 µM (active)"}, {"measurement": "IC50", "setting": "[2]", "value": "0.488 µM (active)"}, {"measurement": "AC50", "setting": "[3]", "value": "0.587 µM (active)"}, {"measurement": "IC50", "setting": "[4]", "value": "83.3 µM (inactive)"}, {"measurement": "IC50", "setting": "[5]", "value": "> 83.3 µM (inactive)"}]}
{"smiles": "CC(C)(C)CC(=O)Nc1ccc(Nc2ccccc2)cc1", "values": [{"measurement": "IC50", "setting": "[6]", "value": "88.6 µM (active)"}, {"measurement": "Ki", "setting": "fMet-Leu-Phe receptor", "value": "> 66.7 µM (inactive)"}]}
{"smiles": "Cc1nn(-c2ccccn2)c2nc(-c3cccs3)cc(C(=O)N3CCOCC3)c12", "values": [{"measurement": "EC50", "setting": "Kallikrein-7", "value": "> 69.5 µM (inactive)"}]}
{"smiles": "COc1ccccc1N1CCN(c2ncc(C(=O)N3CCN(c4cccc(Cl)c4)CC3)c3ccccc23)CC1", "values": [{"measurement": "IC50", "setting": "HEK293 [7]", "value": "5.68 µM (active)"}, {"measurement": "AC50", "setting": "INS1", "value": "3.93 µM (active)"}, {"measurement": "AC50", "setting": "[8]", "value": "30 µM (active)"}, {"measurement": "IC50", "setting": "HEK293 [9]", "value": "4.46 µM (active)"}, {"measurement": "IC50", "setting": "HEK293 [10]", "value": "> 20 µM (inactive)"}, {"measurement": "EC50", "setting": "[11]", "value": "9.31 µM (active)"}, {"measurement": "EC50", "setting": "HEK293 [12]", "value": "4.31 µM (active)"}, {"measurement": "IC50", "setting": "Protein Wnt-3a", "value": "1.47 µM (active)"}, {"measurement": "IC50", "setting": "HEK293 [13]", "value": "> 20 µM (inactive)"}, {"measurement": "EC50", "setting": "[14]", "value": "2.29 µM (active)"}, {"measurement": "EC50", "setting": "[15]", "value": "> 53 µM (inactive)"}, {"measurement": "EC50", "setting": "[16]", "value": "> 30 µM (not active)"}, {"measurement": "AC50", "setting": "CAAX prenyl protease 2", "value": "9.46 µM (active)"}, {"measurement": "AC50", "setting": "[17]", "value": "1.81 µM (active)"}, {"measurement": "AC50", "setting": "[18]", "value": "0.572 µM (active)"}]}
